Here are results for 1 substance from patent US11957769B2, “Polyhydroxy fullerene sunscreen active agents and compositions” (THE CLEVELAND CLINIC FOUNDATION, priority 2016, dated 2024).

The test system of one series is Nrf2 pathway. The following applies: Ye et al. 2014; cited from earlier work.
For series [1] the following is noted: cited from earlier work.
Series [2] is described as follows: UV-Visible absorbance spectra of PHF solution vs commercial SPF60 sunscreen. The class given is physicochemical. The settings on record: PHF solution 0.5 mg/mL in 25% glycerol. The procedure:
The inventors discovered that PHF absorbs UV more effectively than commercial sunscreens. For initial comparisons (FIG. 2), the UV-Vis absorption of PHF solution at 0.5 mg/mL (prepared in 25% glycerol) was compared with Neutrogena SPF 60 (4.9% Titanium dioxide and 4.7% Zinc oxide) sunscreen at 5 mg/mL (in de-ionized water). The total concentration of AI in the commercial sunscreen suspension was equal to that of PHF (0.5 mg/mL) solution. PHF is a broad spectrum UV absorber, as its critical wavelength of 381 nm and UVA/UVB ratio of 1.6 exceeds the FDA limit of 370 nm and 0.91, respectively. The absorbance of PHF is 2.5-1.9 times higher in the UVB region (280-320 nm) and 1.9-1.5 times higher in the UVA region (320-400 nm) than SPF60 sunscreen. This high UV absorptive ability of PHF (for preventing direct damage from UVB and UVA) becomes even more important when combined with other potential advantages of PHF (preventing indirect free radical mediated damage) over current sunscreen AIs, as summarized in Table 1 and FIG. 3.

For series [3] the following is noted: cited from earlier work. The source holds these as a separate data set.
For a further series, the system named is skin sections. Description: Blinded scoring of erythema and edema of UVB-exposed skin sections in a preclinical model. The class given is in vivo. The following applies: UVB 120 mJ/cm^2, 48 hours, blinded panel. Here is the method: PHF is a single, multifunctional active that replaces multiple actives of current sunscreen formulations. […] The concentration of PHF was optimized and the minimum concentration of PHF that prevents symptoms of sunburn (erythema and edema) was determined. In a preclinical model, different skin sections were applied with PHF formulation, SPF60 commercial sunscreen, vehicle (without PHF) samples and control (no application). All skin sections were exposed to UVB at 120 mJ/cm^2 dose. The skin sections were monitored for erythema (redness) and edema (swelling) at 24, 48 and 72 hours. Maximum erythema is usually observed at 48 hours. The photographs of skin sections at 48 hours were scored by a panel consisting of two dermatologists and two non-dermatologists. The panel was blinded to the identity of the samples. The result of blinded scoring study is plotted in FIG. 5. […] [table]

The next series relates to hairless SKH-1 mice. Put plainly: UV damage in skin of hairless SKH-1 mice after topical PHF.
Series [4] is described as follows: Photolability, comparison of sunscreen actives (Table 1). The class given is physicochemical. The settings on record: Table 1 comparison of actives.
[5] abbreviates: 48 hours post-UV exposure, vs water control flank.

Procedure for hairless SKH-1 mice: PHF (obtained from MER Corp.) was dissolved in water and applied on the right flank (2 cm×1 cm) of the dorsal region of hairless SKH-1 mice. The left flank (2 cm×1 cm) of the same mouse was used as a control with topical application of deionized water. The topical applications were allowed to dry for 15 minutes followed by UV exposure (80 mJ/cm^2; 90% UVB and 10% UVA). […] Mice were euthanized 48 hours post-UV exposure, and the skin was harvested for histological analysis or immunofluorescent staining.

For the substance polyhydroxy fullerene [PHF], the Nrf2 pathway activation entry in the series with Nrf2 pathway was “activates the Nrf2 pathway”. The “free radical generation on UV absorption” value in series [1] (Krishna et al. 2008) was “without generating free radicals”. Also, the “Potential ROS generation” value in series [1] (Table 1 comparison of actives) is listed as “None”. For the same substance, in series [2] (FDA limit 0.91), the UVA/UVB ratio was 1.6. In addition, in series [2] (FDA limit 370 nm), the critical wavelength is recorded as 381 nm. Also, the ROS susceptibility result in series [3] (Table 1 comparison of actives) was “Catalytically”. For the same substance, the “neutralization of free radicals” value in series [3] (superoxide, nitric oxide, etc., Yin et al. 2009) was “can catalytically neutralize different types of free radicals”. Besides, in the series on skin sections, the “erythema and edema score vs commercial SPF60 sunscreen” value is reported as “on par with commercial SPF60 sunscreen”. Moreover, in the series with skin sections (α=0.01), the “erythema and edema score vs control and vehicle only” value is “reduced erythema and edema significantly”. Moreover, in the series on hairless SKH-1 mice (24 hours after UV exposure (80 mJ/cm^2; 90% UVB and 10% UVA), topical PHF in water vs water control flank), the “erythema (sunburn)” value is given as “did not show any signs of erythema”. For the same substance, in the series on hairless SKH-1 mice (setting [5]), the “DNA photoproducts (cyclopyrimidine dimers, CPD)” value is on record as “fewer DNA photoproducts”; the “epidermal cell death (dyskeratotic sunburn cells), histology” value is listed as “marked reduction in epidermal cell death”; the “recovery of proliferation (Ki-67)” value is “faster recovery of proliferation”. Further, the Photolabile result in series [4] was “No”.
